Test results published in patent US12594265B2, “Methods and compositions for inhibition of STAT3” (Ohio State Innovation Foundation, priority 2017, dated 2026).
Entries after “also recorded” stand apart in the source; their conditions may differ.

How the values were obtained:
[1] = test system: IL-17 production in myelin-specific CD4 T cells; assay: Inhibition of IL-17 production in myelin-specific CD4 T cells (splenocytes activated with MBP Ac1-11 plus TGF-β and IL-6; flow cytometry, ELISA); format: cell-based, mice; settings: 3 days; for suppression of IL-17 production in myelin-specific CD4 T cells (in words): in vitro; for suppression of IL-17 production: murine myelin-specific CD4 T cells
Description: In vitro culture of splenocytes from TCR transgenic mice. Splenocytes were prepared from naïve 5-10-wk-old Vα2.3/Vβ8.2 TCR transgenic mice and cultured in 24-well plates at […] with irradiated B10.PL splenocytes (6×10^8 cells/well). Cells were activated with of MBP Ac1-11 (10 μg/ml) and different combination of cytokines or neutralizing antibodies for cytokines to differentiate effector T helper cells. Cytokines and antibody concentrations were as follows: 0.5 ng/ml IL-12, 25 ng/ml IL-6, 1 ng/ml TGFβ1, 2 μg/ml anti-IFNγ, 1 μg/ml anti-IL-12, 2 μg/ml anti-IL-4, and 0.35 μg/ml anti-TGFβ (Yang, Weiner et al. 2009).
ELISA Assay. ELISA was performed to detect the expression of IL-17 and IFNγ in supernatant. Purified anti-mouse IL-17 primary antibody (BD bioscience) was diluted in 0.1 M NaHCO3 (pH 8.2) at 2 μg/ml while purified anti-mouse IFNγ primary antibody was diluted in 0.1M NaHCO3 (pH 9.5) at 2 μg/ml. Immunolon II plates (Dynatech Laboratories) were coated with 50 μl of primary antibodies per well and incubated overnight at 4° C. The plates were washed twice with PBS/0.05% Tween 20. The plates were blocked with 200 μl of 1% BSA in PBS per well for 2 h. The plates were washed twice with PBS/0.05% Tween 20, and 100 μl of supernatants were added in duplicate. The plates were incubated over-night at 4° C. and washed four times with PBS/0.05% Tween 20. Biotinylated rat anti-mouse secondary antibody (BD bioscience) were diluted in PBS/1% BSA, 100 μl of 1 μg/ml biotinylated antibody was added to each well, and plates were incubated at room temperature for 1 h. The plates were washed six times with PBS/0.05% Tween 20, and 100 μl avidin-peroxidase was added at 2.5 μg/ml and incubated for 30 min. The plates were washed eight times with PBS/0.05% Tween 20, and 100 μl ABTS substrate containing 0.03% H2O2 (for IL-17) or TMB substrate (for IFNγ) was added to each well. The plate was monitored for 10-20 min for color development and read at A 405. A standard curve was generated from cytokine standard, and the cytokine concentration in the samples was calculated.
Intracellular staining and flow cytometric analysis. Flow cytometric analysis was performed to evaluate the expression of surface markers and T-bet in CD4 T cells, as previously described (Yang, Weiner et al. 2009). Briefly, splenocytes were activated with antigen or αCD3/CD28 for 48 to 72 hours. Cells were then collected, washed, and resuspended in staining buffer (1% BSA in PBS). The cells were incubated with mAbs to the cell-surface markers for 30 min at 4° C. After washing twice with staining buffer, cells were fixed and permeabilized using Cytofix/Cytoperm solution for 20 min at 4° C. […] 80,000-100,000 live cell events were acquired on a FACSCanto (BD) and analyzed using FlowJo software (Tree Star, Inc.). […]

[2] = test system: CD25+FoxP3+ iTregs of CD4 T cells from MS patients; assay: iTreg development of CD4 T cells from MS patients (intracellular flow cytometry); format: cell-based, human
Description: FIGS. 14A-14M show representative data for LLL12b suppression of human Th17 development and promotion of Treg development in CD4 T-cells from MS patients. FIGS. 14A, 14E, 14H, and 14K each shown representative data obtained in PBMCs from 22 treatment-naïve MS patients that were activated with αhCD3 plus rhIL-6 for 3 days, in the presence of 0.125 μM or 0.25 μM of LLL12b. DMSO was used as a vehicle control. IL-17 in supernatant was determined by ELISA. FIGS. 14B-14C, 14F, 14I, and 14L each shown representative data obtained in PBMCs from 22 treatment-naïve MS patients that were activated with αhCD3/CD28 plus rhTGFβ. rhIL-2 and RA for 3 days, in the presence of 0.125 μM of LLL12b. DMSO was used as vehicle control. CD25+FoxP3+CD4+ iTregs were determined by intracellular flow cytometry. Cells were gated CD45RA+CD4+ cells. […] IL-17 in each group was compared with one-way ANOVA. […] FIG. 14G the calculated IL-17/Treg ratio of each patient in LLL12b group and DMSO group and compared with Wilcoxon matched-pairs signed rank test. […] FIG. 14J the calculated percent decrease of IL-17/Treg ratio in LLL12b group compared to DMSO group. […] FIG. 14M patient numbers in different ranges of calculated percent decrease of IL-17/Treg.
Meanwhile, we determined the extent to which LLL12b promotes the development of iTregs of CD4 T cells from MS patients (FIGS. 14B-14C, 14F, 14I, and 14L). PBMCs from 22 treatment-naïve MS patients were activated with αhCD3/CD28 for 3 days, in the presence of TGFβ, IL-2 and trans-retinoic acid (iTreg differentiating condition). After 72 h of culture under iTreg differentiating condition, the total number of CD25+FoxP3+ iTregs in the CD4+CD45RA+ population increased from 40% in control group to 59% in the group treated with LLL12b.

[3] = of 22 treatment-naïve MS patients, compared to DMSO

SMILES | suppression of IL-17 production in myelin-specific CD4 T cells (in words) [1] | iTreg development of CD4 T cells from MS patients ([2]; 0.125 μM, 22 treatment-naïve MS patients) | patient numbers with % Increase of iTregs 5-20% [2, 3] | patient numbers with % Increase of iTregs 20-40% [2, 3] | patient numbers with % Increase of iTregs <5% [2, 3] | patient numbers with % Increase of iTregs >40% [2, 3] | CD25+FoxP3+ iTregs in the CD4+CD45RA+ population ([2]; one MS patient, 72 h, iTreg differentiating condition, control group 40%) | suppression of IL-17 production ([1]; 0.25 μM) | suppression of IL-17 production ([1]; 0.50 μM)
NS(=O)(=O)c1cccc2c1C(=O)c1cccc(O)c1C2=O [LLL12] | inhibition of IL-17 |  |  |  |  |  |  |  | 
CN(C)C(=O)Oc1cccc2c1C(=O)c1cccc(S(N)(=O)=O)c1C2=O [LLL12b] | significantly suppress IL-17 production; also recorded: inhibits myelin-specific IL-17 production in a dose-dependent manner | significantly promotes iTreg development | 13 | 3 | 5 | 1 | 59% | 44% | 72%
